# Reference: patent EP3744328B1, “USES OF OXADIAZINE COMPOUNDS” (Valoralia I Más D, S.L.U., priority 2019, dated 2020)
# Experiments:
# THP-1 cell [1] = assay: Cytotoxic activity assay; type: cell-based; conditions: 48 h, at the tested concentrations
# Experimental: Cytotoxic activity assays. THP-1 cell was seeded in 96-well plates at a density of 5x10^4 cells/well and NIH/3T3 cells were seeded in 96-well plates at a density of 5x10^3 cells/well both incubated overnight at 37°C in a humidified atmosphere of 5% CO2. Subsequently, cells were treated with test compounds at the indicated concentrations and DMSO as control for 24 h. The test compounds were dissolved in DMSO (stock solution) and diluted with medium to a final DMSO concentration of 0.2%. MTT solution (50 µL, 7 mg/mL in PBS) was added to each well and plates were incubated for an additional 2 h. Next, the medium was removed and 100 µL of DMSO was added to each well to dissolve the formazan crystals that formed. The absorbance was measured at 590 nm using a spectrophotometric ELISA plate reader (SpectraMax® i3, Molecular Devices, CA, USA). Samples were considered nontoxic for the THP-1 and NIH/3T3 cell line when cell viability was ≥90%.
# To analyse the cytotoxic activities of the test compound, THP-1 and NIH/3T3 cells were incubated with ODZN for 48 h and cytotoxicity was measured by fluorescence microscopy using an Incuyte microscope. […] (Figure 1).
# [2] = Total antioxidant activity assay (DPPH free radical assay, cell-free)
# Experimental: Total antioxidant activity assay. […] DPPH (1,1-Diphenyl-2-[…]) is a purple coloured stable free radical that is reduced to the yellow-coloured diphenylpicrylhydrazine. In a volume of 1 mL of methanol the test samples are mixed with DPPH 0.125 mM. Trolox (200 µM) is included as a positive control. After 30 min of incubation at room temperature in the dark the absorbance measurements are read at 517 nm using Thermo Scientific Genesys 10 uv scanning spectrophotometer. Lower absorbance of the reaction mixtures indicated higher free radical-scavenging activity. DPPH radical-scavenging activity is calculated according to the following formula: %Antioxidant activity = [(Ac−As)/Ac] × 100 [formula]
# Where Ac (control) is the absorbance of the control reaction (DPPH) and As (sample) is the absorbance of DPPH and sample.
# THP-1 cell [3] = assay: Cellular antioxidant activity assay (TBHP-induced ROS production, DCFH-DA probe) in THP-1; type: cell-based; conditions: Homo sapiens, intracellular ROS induced by TBHP
# Experimental: Cellular antioxidant activity assays. The intracellular accumulation of ROS is detected by fluorimetry using 2',7'-[…] (DCFH-DA). The THP-1 cell (1x10^5 cells/well) are cultured in a 96-well black plate in DMEM supplemented with 10% FBS; culture medium is renewed when the cells reached 80% confluence. For inhibition, the cells are pre-incubated with the test substances for 30 min and treated with 0,4 mM Tert-butylhydroperoxide (TBHP). After 3 h the cells are incubated with 10 µM DCFH-DA in the culture medium at 37°C for 30 min.
# The acetate groups on DCFH-DA are removed by an intracellular esterase, trapping the probe inside the THP-1 cell. Then, the cells are washed with PBS at 37°C and the production of ROS measured by changes in fluorescence due to the intracellular accumulation of DCF caused by the oxidation of DCFH. Intracellular ROS, as indicated by DCF fluorescence is detected using the Incucyte FLR software; the data are analyzed by the total green object integrated intensity (GCU x µm^2 x well) of the imaging system IncuCyte HD (Essen BioScience).
# NIH/3T3 cell = assay: Cellular antioxidant activity assay (TBHP-induced ROS production, DCFH-DA probe) in NIH/3T3; type: cell-based; conditions: Mus musculus, NIH3T3, intracellular ROS induced by TBHP
# TNF-α [4] = assay: TNF-α activity assay (ELISA) in THP-1; type: cell-based; conditions: Homo sapiens; THP-1 cell; read-out: inhibition of TNF-α production IC50
# Experimental: (§1) TNF-α activity assays. The protein expression levels of TNF-α were measured by using an enzyme-linked immunosorbent assay (ELISA) kit according to the manufacturer's instructions (Diaclone). Absorbance was read at 450 nm on a spectrophotometric ELISA plate reader (Anthos 2020, Version 2.0.5, Biochrom Ltd.,UK). The percentage of TNF-α inhibition was calculated from the ratio between the observed TNF-α amount secreted by treated cells (nM) and the baseline secretion of TNF-α (nM). Dexamethasone (Sigma-Aldrich; 50-02-2), was used as positive control (0.01 µM). Results were normalized to the solvent control DMSO (0.1%).
# TNF-α [5] = assay: TNF-α activity assay (ELISA) in NIH/3T3; type: cell-based; conditions: Mus musculus, NIH3T3; NIH/3T3 cell; read-out: inhibition of TNF-α production IC50
# Experimental: as §1
# NF-κB [6] = assay: NF-κB activity assay in THP-1; type: cell-based; conditions: Homo sapiens; THP-1 cell; read-out: inhibition of NF-κB production IC50
# NF-κB [7] = assay: NF-κB activity assay (KBF-Luc luciferase reporter) in NIH/3T3; type: cell-based; conditions: Mus musculus, NIH3T3; NIH/3T3 cell; read-out: inhibition of NF-κB production IC50
# Experimental: NF-κB activity assays. The NIH/3T3-KBF-Luc cells has been stably transfected with the plasmid KBF-Luc plasmid, which contains three copies of NF-κB binding site (from major histocompatibility complex promoter), fused to a minimal simian virus 40 promoter driving the luciferase gene. Cells (1x10^4 for NIH/3T3-KBF-Luc) are seeded the day before the assay on 96-well plate. Then the cells are treated with the test substances for 15 min and then stimulated with 30 ng/mL TNF-α. After 6 h, the cells are washed twice with PBS and lysed in 50µl lysis buffer containing 25 mM Tris-phosphate (pH 7.8), 8 mM MgCl2, 1 mM DTT, 1% Triton X-100, and 7% glycerol during 15 min at RT in a horizontal shaker. Luciferase activity is measured using a GloMax 96 microplate luminometer (Promega) following the instructions of the luciferase assay kit (Promega, Madison, WI, USA). The RLU is calculated and the results are expressed as percentage of inhibition of NF-κB activity induced by TNF-α (100% activation). The experiments for each concentration of the test items will be done in triplicate wells.
# STAT3 = STAT3 activity assay (HeLa-STAT3-luc luciferase reporter); type: cell-based; conditions: HeLa-STAT3-Luc cells, IFNγ 25 U/mL, 6 h; read-out: inhibition of IFNγ-induced STAT3 activation IC50
# Experimental: STAT3 activity assay. The HeLa-STAT3-luc cells have been stably transfected with the plasmid 4xM67 pTATA TK-Luc. Cells (15 x10^3 cells/mL) are seeded 96-well plate the day before the assay. Then the cells are treated with the compound for 15 min and then stimulated with IFN-γ 25 IU/mL. After 6 h, the cells are washed twice with PBS and lysed in 50 µL lysis buffer containing 25 mM Tris-phosphate (pH 7.8), 8 mM MgCl2, 1 mM DTT, 1% Triton X-100, and 7% glycerol during 15 min at RT in a horizontal shaker. Luciferase activity was measured using GloMax 96 microplate luminometer (Promega) following the instructions of the luciferase assay kit (Promega, Madison, WI, USA). The RLU is calculated and the results are expressed as percentage of inhibition of STAT3 activity induced by IFN-γ (100% activation). The experiments for each concentration of the test items will be done in triplicate wells.
# HIF-1α = HIF-1α activity assay (NIH/3T3-EPO-luc luciferase reporter); type: cell-based; conditions: 6 h, read-out: inhibition of DFX-induced activation of EPO-Luc (surrogated marker of HIF-1α stabilization) IC50
# Experimental: HIF-1α activity assay. The NIH/3T3-EPO-luc cells have been stably transfected with the plasmid Epo-Luc plasmid. The EPO-Hypoxia Response Element (HRE)-luciferase reporter plasmid contains three copies of the HRE consensus sequence from the promoter of the erythropoietin gene in the pGL3 vector. Cells (1x10^4 for NIH/3T3-EPO-luc) are seeded the day before the assay. The next day, the cells are stimulated either with the compound or Desferrioxamine (DFX) 150 µM as a positive control. After 6 hours of stimulation the cells are lysed in 25 mM Tris-phosphate pH 7.8, 8 mM MgCl2, 1 mM DTT, 1% Triton X-100, and 7% glycerol during 15 min at RT in a horizontal shaker. Luciferase activity is measured using a GloMax 96 microplate luminometer (Promega) following the instructions of the luciferase assay kit (Promega, Madison, WI, USA). The RLU is calculated and the results are expressed as percentage of inhibition induction/inhibition of EPO-luc activity. The experimentsfor each concentration of the test items will be done in triplicate wells.
# tyrosinase = biological target: T1, tyrosinase (Mus musculus, UniProt P11344); assay: Tyrosinase activity assay in B16-F10 melanoma cells; type: cell-based; conditions: 72 h treatment, read-out: inhibits melanin synthesis IC50
# T1 construct: To measure the tyrosinase activity of the cells, the B16-F10 cells treated for 3 days; endogenous in cells; host or cells: B16-F10 melanoma cells
# T1 sequence (P11344 19-533): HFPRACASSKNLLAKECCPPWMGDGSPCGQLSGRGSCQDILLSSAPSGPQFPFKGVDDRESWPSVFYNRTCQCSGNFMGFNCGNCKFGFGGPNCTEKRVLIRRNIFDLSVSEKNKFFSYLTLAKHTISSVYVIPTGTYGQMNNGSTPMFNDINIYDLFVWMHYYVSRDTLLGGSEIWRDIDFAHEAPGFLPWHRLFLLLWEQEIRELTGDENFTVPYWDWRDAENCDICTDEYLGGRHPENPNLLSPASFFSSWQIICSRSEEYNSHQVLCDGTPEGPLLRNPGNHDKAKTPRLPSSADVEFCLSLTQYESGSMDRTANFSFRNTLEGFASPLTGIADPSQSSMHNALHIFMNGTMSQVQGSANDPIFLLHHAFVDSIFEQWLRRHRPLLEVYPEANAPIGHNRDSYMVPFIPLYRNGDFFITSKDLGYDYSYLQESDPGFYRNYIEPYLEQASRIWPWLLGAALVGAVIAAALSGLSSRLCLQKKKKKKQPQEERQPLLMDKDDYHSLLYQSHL
# Experimental: Tyrosinase activity assay. To measure the tyrosinase activity of the cells, the B16-F10 cells treated for 3 days with several doses of the compound is lysed by incubation at 4°C for 30 min in lysis buffer (20 mM sodium phosphate, pH 6.8, 1% Triton X-100, 1 mM PMSF, 1 mM EDTA) containing protease inhibitors cocktail. The lysates are centrifuged at 15,000 × g for 10 min to obtain the supernatant as the source of tyrosinase. The reaction mixture contained 20 mM phosphate buffer, pH 6.8, 1.25 mM L-DOPA (Sigma-Aldrich). After incubation at 37°C for 2 h, dopachrome formation is monitored by measuring absorbance at a wavelength of 475 nm in a microplatereader (TECAN). Kojic acid 2 mM is used as a positive control.
SMILES,cytotoxicity (THP-1 cell [1]),IC50 ([2]; cell-free assay (DPPH)),IC50 (THP-1 cell [3]),IC50 (NIH/3T3 cell),IC50 (TNF-α [4]),IC50 (TNF-α [5]),IC50 (NF-κB [6]),IC50 (NF-κB [7]),IC50 (STAT3),IC50 (HIF-1α),IC50 (tyrosinase),"antioxidant activity ([2]; DPPH free radical assay, standard, 200 µM positive control)"
"CCCCCC1=NN(C(=O)CCO)OC(CCCCC)C1 (stereo not drawn) [ODZN, 1-(4,6-dipentyl-5,6-dihydro-2H-1,2,3-oxadiazin-2-yl)-3-hydroxypropan-1-one]",no cytotoxicity,9.77 nM,10.6 nM,3.33 nM,14.8 nM,8.21 nM,56.3 nM,31.8 nM,1.57 nM,9.59 nM,16.9 nM,–
"Cc1c(C)c2c(c(C)c1O)CCC(C)(C(=O)O)O2 (stereo not drawn) [Trolox, reference compound]",–,–,–,–,–,–,–,–,–,–,–,92.08%
